Experimental data published in PubChem BioAssay AID248 (DTP/NCI, 2004).
Values joined by “and” are separate entries in the source; they are usually repeats but may differ in a detail not shown here. Identical values can stand only once. Toxic doses and inconclusive results are not listed. No stated cut-off is given here; in the data, active means T/C of 150% or more; inactive means T/C below 125%.

System: L1210 leukemia ip in BDF1 mice, survival T/C
Test: NCI In Vivo Anticancer Drug Screen. Data for tumor model L1210 Leukemia (intraperitoneal) in B6D2F1 (BDF1) mice
Conditions: endpoint: mean survival time, higher = longer survival
Method in brief: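 Survival endpoint. Drug-treated group vs vehicle group, expressed as T divided by C. Tumor passaged by transplantation.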

[1] = dose: 25.0 mg/kg/injection, schedule: Q01DX009 (ip), vehicle: saline with Tween-80
[2] = dose: 50.0 mg/kg/injection, schedule: Q01DX009 (ip), vehicle: saline with Tween-80
[3] = dose: 100.0 mg/kg/injection, schedule: Q01DX009 (ip), vehicle: saline with Tween-80
[4] = dose: 200.0 mg/kg/injection, schedule: Q01DX009 (ip), vehicle: saline with Tween-80
[5] = dose: 100.0 mg/kg/injection, schedule: Q04DX003 (ip), vehicle: Klucel (hydroxypropylcellulose) (HPC)
[6] = dose: 200.0 mg/kg/injection, schedule: Q01DX009 (ip), vehicle: Klucel (hydroxypropylcellulose) (HPC)
[7] = dose: 200.0 mg/kg/injection, schedule: Q04DX003 (ip), vehicle: Klucel (hydroxypropylcellulose) (HPC)
[8] = dose: 400.0 mg/kg/injection, schedule: Q01DX009 (ip), vehicle: Klucel (hydroxypropylcellulose) (HPC)
[9] = dose: 400.0 mg/kg/injection, schedule: Q04DX003 (ip), vehicle: Klucel (hydroxypropylcellulose) (HPC)
[10] = dose: 100.0 mg/kg/injection, schedule: Q01DX001 (ip), vehicle: saline
[11] = dose: 200.0 mg/kg/injection, schedule: Q01DX001 (ip), vehicle: saline
[12] = dose: 100.0 mg/kg/injection, schedule: Q01DX009 (ip), vehicle: Klucel (hydroxypropylcellulose) (HPC)
[13] = dose: 12.5 mg/kg/injection, schedule: Q04DX003 (ip), vehicle: saline
[14] = dose: 25.0 mg/kg/injection, schedule: Q04DX003 (ip), vehicle: saline
[15] = dose: 50.0 mg/kg/injection, schedule: Q01DX009 (ip), vehicle: Klucel (hydroxypropylcellulose) (HPC)

Measured: T/C

Cc1ccc(S(=O)(=O)On2cccc2C#N)cc1
inactive: [1] 102 % of control | [2] 94 % of control and 96 % of control | [3] 98 % of control | [4] 97 % of control and 102 % of control

COC(=O)c1cc(=O)[nH]c2c1c(=O)n(C)c(=O)n2C
inactive: [5] 95 % of control | [6] 97 % of control | [7] 90 % of control | [8] 97 % of control | [9] 94 % of control

CC(C)(C)c1ccc(S(=O)(=O)c2ccc(C(C)(C)C)c(N=C=O)c2)cc1N=C=O
inactive: dose: 75.0 mg/kg/injection, schedule: Q04DX002 (ip), vehicle: saline with Tween-80 96 % of control | dose: 150.0 mg/kg/injection, schedule: Q04DX002 (ip), vehicle: saline with Tween-80 101 % of control | dose: 300.0 mg/kg/injection, schedule: Q04DX002 (ip), vehicle: saline with Tween-80 93 % of control

CCOc1ccn(C2OC(CO)C(OC3OC(COC(C)=O)C(OC(C)=O)C(OC(C)=O)C3OC(C)=O)C(OC(C)=O)C2OC(C)=O)c(=O)n1 (stereo not given)
inactive: dose: 22.5 mg/kg/injection, schedule: Q01DX001 (ip), vehicle: carboxymethylcellulose (CMC) 100 % of control | dose: 45.0 mg/kg/injection, schedule: Q01DX001 (ip), vehicle: carboxymethylcellulose (CMC) 103 % of control | dose: 90.0 mg/kg/injection, schedule: Q01DX001 (ip), vehicle: carboxymethylcellulose (CMC) 97 % of control | dose: 180.0 mg/kg/injection, schedule: Q01DX001 (ip), vehicle: carboxymethylcellulose (CMC) 100 % of control

CCCCSc1n[nH]c(=O)[nH]c1=S
inactive: [10] 91 % of control | [11] 96 % of control

O=c1cc(CC(O)(c2ccccc2)c2ccccc2)cc[nH]1
inactive: [10] 100 % of control | [11] 95 % of control | dose: 400.0 mg/kg/injection, schedule: Q01DX001 (ip), vehicle: saline 100 % of control

CCc1cc2c([nH]c3ccccc32)c(C)c1CCN(C)C
inactive: dose: 50.0 mg/kg/injection, schedule: Q01DX001 (ip), vehicle: other 101 % of control | dose: 100.0 mg/kg/injection, schedule: Q01DX001 (ip), vehicle: other 97 % of control | dose: 200.0 mg/kg/injection, schedule: Q01DX001 (ip), vehicle: other 95 % of control

O=[N+]([O-])c1ccc(/C=C/c2ccccc2)cc1
inactive: [12] 97 % of control | [5] 109 % of control | [6] 95 % of control | [7] 98 % of control | [8] 96 % of control | [9] 105 % of control

O=[N+]([O-])c1ccc2scc3c4ccccc4nc-3c2c1
inactive: dose: 4.37 mg/kg/injection, schedule: Q01DX009 (ip), vehicle: Klucel (hydroxypropylcellulose) (HPC) 95 % of control | dose: 8.75 mg/kg/injection, schedule: Q01DX009 (ip), vehicle: Klucel (hydroxypropylcellulose) (HPC) 101 % of control | [13] 101 % of control | dose: 17.5 mg/kg/injection, schedule: Q01DX009 (ip), vehicle: Klucel (hydroxypropylcellulose) (HPC) 89 % of control | [14] 101 % of control

C/C(=N/N(C)C)c1ccccc1O
inactive: [12] 103 % of control | [6] 106 % of control | [8] 92 % of control

O=C1NC(c2cccc3ccccc23)Nc2cc(Cl)ccc21 (stereo not given)
inactive: [15] 109 % of control | [12] 112 % of control | dose: 150.0 mg/kg/injection, schedule: Q01DX009 (ip), vehicle: Klucel (hydroxypropylcellulose) (HPC) 118 % of control

CCCCCCCCCCNC(=O)C[n+]1cccc(C(=O)NC)c1
inactive: [13] 95 % of control | [14] 89 % of control

C/C=C/C=C/C(=O)c1cc(C#N)c(OC)cc1O
inactive: dose: 100.0 mg/kg/injection, schedule: Q01DX001 (ip), vehicle: saline with Tween-80 93 % of control | dose: 200.0 mg/kg/injection, schedule: Q01DX001 (ip), vehicle: saline with Tween-80 90 % of control | dose: 400.0 mg/kg/injection, schedule: Q01DX001 (ip), vehicle: saline with Tween-80 93 % of control

C=C1CC(O)C2C(C)C(=O)OC2C2C1CC1OC12C (stereo not given)
inactive: dose: 100.0 mg/kg/injection, schedule: Q04DX002 (ip), vehicle: saline 92 % of control | dose: 200.0 mg/kg/injection, schedule: Q04DX002 (ip), vehicle: saline 95 % of control | dose: 400.0 mg/kg/injection, schedule: Q04DX002 (ip), vehicle: saline 92 % of control

CN(C)c1ccc(C(=O)c2ccccc2)cc1
inactive: [15] 101 % of control | [12] 108 % of control | [5] 100 % of control | [6] 95 % of control | [7] 105 % of control | [8] 102 % of control | [9] 100 % of control

CC(=O)CSc1nc2nccnc2[nH]1
inactive: [1] 110 % of control | [2] 110 % of control | [3] 104 % of control | [4] 104 % of control | dose: 400.0 mg/kg/injection, schedule: Q01DX009 (ip), vehicle: saline with Tween-80 107 % of control

CC1CC(C)(C)N=C(CCCO)O1 (stereo not given)
inactive: dose: 50.0 mg/kg/injection, schedule: Q04DX002 (ip), vehicle: saline with Tween-80 104 % of control | dose: 100.0 mg/kg/injection, schedule: Q04DX002 (ip), vehicle: saline with Tween-80 96 % of control | dose: 200.0 mg/kg/injection, schedule: Q04DX002 (ip), vehicle: saline with Tween-80 104 % of control | dose: 400.0 mg/kg/injection, schedule: Q04DX002 (ip), vehicle: saline with Tween-80 100 % of control
